Source: patent publication US11026426B2, “Oxadiazole and phenol derivatives as antibacterial and/or herbicidal agents” (NORTHERN ILLINOIS RESEARCH FOUNDATION, priority 2017, dated 2021)
Like-named read-outs stand apart in the source and are kept apart here.

How the values were obtained:
[1] = target: T1, Mycobacterium tuberculosis IspD (MtIspD) (Mycobacterium tuberculosis, UniProt P9WKG9); assay: Thermal shift assay against MtIspD; type: binding
T1 sequence (P9WKG9 1-231): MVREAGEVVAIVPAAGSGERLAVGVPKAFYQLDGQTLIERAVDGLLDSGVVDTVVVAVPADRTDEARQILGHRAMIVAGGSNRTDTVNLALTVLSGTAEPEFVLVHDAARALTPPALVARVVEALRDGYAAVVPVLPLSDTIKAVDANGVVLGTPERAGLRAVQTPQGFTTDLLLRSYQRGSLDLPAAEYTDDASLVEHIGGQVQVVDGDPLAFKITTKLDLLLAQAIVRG

[2] = target: Lycopersicon esculentum IspE (LeIspE) (Solanum lycopersicum, UniProt P93841); assay: Thermal shift assay against LeIspE; type: binding
[3] = target: Mycobacterium paratuberculosis IspD (MpIspD) (Mycolicibacterium paratuberculosis, UniProt Q743W5); assay: Thermal shift assay against MpIspD; type: binding
[4] = system: lettuce seeds; assay: Lettuce leaf assay; type: in vivo; parameters: key: 0 (no effect); 5(complete inhibition or bleaching); conditions: ranking 0-5
Method in brief: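 Qualitative assay: compounds in volatile organic solvent applied to filter paper in a petri dish, solvent evaporated, lettuce seeds and 5 mL water added to give test concentrations. Germination, root development and leaf bleaching scored days 3 and 4, ranked 0 (no effect) to 5 (complete inhibition or bleaching).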

[5] = target: AtIspD (Arabidopsis thaliana, UniProt P69834); assay: University of Hamburg photometric enzymatic inhibition assay AtIspD; type: biochemical; conditions: read-out: AtIspD IC50
Method in brief: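 Coupled photometric assay: 2.4 mU AtIspD with 1 mM (2R,3S)-2,3-dihydroxy-4-oxopentyl phosphate, 2.1 mM CTP, excess IspE (0.4 U), ATP, pyruvate kinase/lactate dehydrogenase and 460 μM NADH. Run in 100 mM Tris-HCl pH 8.0, 10 mM MgCl2, 1 mM DTT, 1.1% DMSO at 27 °C, monitored photometrically.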

[6] = target: LeIspE (Solanum lycopersicum, UniProt P93841); assay: University of Hamburg photometric enzymatic inhibition assay LeIspE; type: biochemical, Lycopersicon esculentum; conditions: read-out: LeIspE IC50
Method in brief: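 Photometric coupled assay with pyruvate kinase/lactate dehydrogenase following NADH (460 μM). Mix: 100 mM Tris-HCl pH 8.0, 10 mM MgCl2, 1 mM DTT, 2.5 mM phosphoenolpyruvate, 2 mM ATP, 1 mM 4-diphosphocytidyl-2-C-methylerythritol, 1.1% DMSO, 2.4 mU IspE; incubated at 27° C.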

[7] = target: AtIspF (Arabidopsis thaliana, UniProt Q9CAK8); assay: University of Hamburg photometric enzymatic inhibition assay AtIspF; type: biochemical; conditions: read-out: AtIspF IC50
Method in brief: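 Coupled photometric assay (CMP kinase/pyruvate kinase/lactate dehydrogenase, NADH consumption) with 2.4 mU AtIspF and 1 mM 4-diphosphocytidyl-2C-methylerythritol 2-phosphate, 2 mM ATP, in 100 mM Tris-HCl pH 8.0, 10 mM MgCl2, 1.1% DMSO. Monitored at 27 °C.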

[8] = system: Burkholderia thailandensis; type: cell-based; conditions: preliminary screening, score 0-3
[9] = system: Mycobacterium smegmatis; assay: Antibacterial preliminary screening MS; type: cell-based; conditions: score 0-3; note: key: 0 represents no inhibition; 3 is comparable to commercial antibiotic control
[10] = system: Corynebacterium xerosis; assay: Antibacterial preliminary screening CX; type: cell-based; conditions: score 0-3; note: key: 0 represents no inhibition; 3 is comparable to commercial antibiotic control
[11] = system: Corynebacterium pseudodiphtheriae; assay: Antibacterial preliminary screening CP; type: cell-based; conditions: score 0-3;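 note: 0 is no inhibition and 3 matches the commercial antibiotic control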
[12] = system: Escherichia coli; assay: Antibacterial preliminary screening EC; type: cell-based; conditions: score 0-3; note: key: 0 represents no inhibition; 3 is comparable to commercial antibiotic control
[13] = system: Klebsiella pneumonia; assay: Antibacterial preliminary screening KP; type: cell-based; conditions: score 0-3; note: key: 0 represents no inhibition; 3 is comparable to commercial antibiotic control
[14] = system: Micrococcus luteus; assay: Antibacterial preliminary screening ML; type: cell-based; conditions: score 0-3; note: key: 0 represents no inhibition; 3 is comparable to commercial antibiotic control
[15] = system: Bacillus cereus; assay: Antibacterial preliminary screening BC; type: cell-based; conditions: score 0-3; note: key: 0 represents no inhibition; 3 is comparable to commercial antibiotic control
[16] = system: Pseudomonas aeruginosa; assay: Antibacterial preliminary screening PA; type: cell-based; conditions: for PA score: score 0-3
[17] = target: IspD of Mycobacterium paratuburculosis (Mycolicibacterium paratuberculosis, UniProt Q743W5); assay: STD-NMR fragment screening MpIspD; type: binding; conditions: Fragments of Life library screening
[18] = system: IspE of Mycobacterium abscessus; assay: STD-NMR fragment screening MaIspE; type: binding; conditions: Fragments of Life library screening
[19] = target: Ec IspE (Escherichia coli, UniProt P62615); assay: Kinase-Glo luminescent enzymatic assay Ec IspE; type: biochemical
[20] = target: T2, Bt IspE (Burkholderia thailandensis, UniProt Q2T1B6); assay: biochemical
[21] = system: Burkholderia thailandensis; type: cell-based
[22] = system: Pseudomonas aeruginosa; assay: Antibacterial assay zone of inhibition Pa; type: cell-based
[23] = system: Micrococcus luteus; assay: Antibacterial assay zone of inhibition Ml; type: cell-based
[24] = system: Klebsiella pneumonia; assay: Antibacterial assay zone of inhibition Kp; type: cell-based
[25] = system: Escherichia coli; assay: Antibacterial assay zone of inhibition Ec; type: cell-based
[26] = system: Bacillus cereus; assay: Antibacterial assay zone of inhibition Bc; type: cell-based
[27] = system: Mycobacterium smegmatis; assay: Antibacterial assay zone of inhibition Ms; type: cell-based
[28] = system: Corynebacterium xerosis; assay: Antibacterial assay zone of inhibition Cx; type: cell-based
[29] = system: Corynebacterium pseudodiphtheriae; assay: Antibacterial assay zone of inhibition Cp; type: cell-based
[30] = target: T2, Bt IspE; assay: ITC binding study with Bt IspE
Protocol: All ITC experiments were performed under the same conditions as described herein. Compounds were dissolved in DMSO and brought to concentration with the dialysis buffer, with a maximum DMSO concentration of 10% by volume which was matched between ligand and enzyme, and centrifuged at 10,000 RPM for 10 minutes. The dialysis buffer was used for all sample dilutions to ensure buffers matching between the titrant and titrate, thus minimizing the excess heat due to buffer mismatch. ITC experiments were performed with IspE in the cell and ligand in the syringe. The initial injection volume was 2 μL (omitted) followed by 27 10 μL injections, every 240 seconds. Samples were run at 25° C., at pH 7.4, with a stirring speed of 307 RPM. Dilution runs were performed to allow determination of background heats caused by solution mismatch and instrument noise. Dilution runs were performed with ligand (at the same concentration as in the experiment run) in the syringe titrated into the dialysis buffer in the cell. Data were fit using OriginPro 7 with the ITC add-on by the manufacturer.

Sequence of Lycopersicon esculentum IspE (LeIspE) (P93841 89-401): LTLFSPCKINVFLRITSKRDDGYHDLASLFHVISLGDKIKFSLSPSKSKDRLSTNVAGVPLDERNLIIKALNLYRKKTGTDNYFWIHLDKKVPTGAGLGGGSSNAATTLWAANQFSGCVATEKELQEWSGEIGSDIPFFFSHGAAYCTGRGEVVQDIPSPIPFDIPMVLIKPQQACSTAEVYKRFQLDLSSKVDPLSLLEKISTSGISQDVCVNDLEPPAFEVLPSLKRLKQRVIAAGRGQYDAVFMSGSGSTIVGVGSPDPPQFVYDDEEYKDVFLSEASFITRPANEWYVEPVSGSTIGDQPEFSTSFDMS
T2 sequence (Q2T1B6 whole entry): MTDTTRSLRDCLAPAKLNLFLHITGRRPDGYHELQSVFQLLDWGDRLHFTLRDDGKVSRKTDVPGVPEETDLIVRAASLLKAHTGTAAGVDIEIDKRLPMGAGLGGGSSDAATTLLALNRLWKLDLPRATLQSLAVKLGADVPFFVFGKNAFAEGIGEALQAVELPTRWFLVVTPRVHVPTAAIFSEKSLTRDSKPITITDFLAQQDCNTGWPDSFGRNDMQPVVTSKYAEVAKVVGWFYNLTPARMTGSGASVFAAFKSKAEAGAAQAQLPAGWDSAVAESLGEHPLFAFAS
Sequence of LeIspE (P93841 89-401): as the sequence (P93841 89-401) above
Sequence of AtIspD (P69834 62-302): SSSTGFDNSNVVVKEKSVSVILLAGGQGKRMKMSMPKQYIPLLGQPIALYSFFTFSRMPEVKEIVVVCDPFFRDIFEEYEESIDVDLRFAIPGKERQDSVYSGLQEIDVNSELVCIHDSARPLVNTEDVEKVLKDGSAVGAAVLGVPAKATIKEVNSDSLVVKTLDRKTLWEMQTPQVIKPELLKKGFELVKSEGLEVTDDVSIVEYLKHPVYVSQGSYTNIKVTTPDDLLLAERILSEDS
Sequence of AtIspF (Q9CAK8 53-231): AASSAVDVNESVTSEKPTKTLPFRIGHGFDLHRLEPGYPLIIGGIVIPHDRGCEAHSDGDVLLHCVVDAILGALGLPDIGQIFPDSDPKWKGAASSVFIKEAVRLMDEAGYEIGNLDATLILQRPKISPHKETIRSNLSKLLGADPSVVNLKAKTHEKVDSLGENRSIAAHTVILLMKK
Sequence of Ec IspE (P62615 whole entry): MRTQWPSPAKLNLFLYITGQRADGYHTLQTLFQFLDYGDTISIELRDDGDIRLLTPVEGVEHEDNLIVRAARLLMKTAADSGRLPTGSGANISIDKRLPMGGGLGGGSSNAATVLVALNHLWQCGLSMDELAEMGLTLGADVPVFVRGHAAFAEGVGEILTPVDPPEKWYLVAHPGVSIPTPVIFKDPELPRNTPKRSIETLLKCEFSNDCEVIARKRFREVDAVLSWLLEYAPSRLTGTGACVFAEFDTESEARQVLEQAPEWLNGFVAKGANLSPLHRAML
Sequence of Mycobacterium paratuberculosis IspD (MpIspD) (Q743W5 whole entry): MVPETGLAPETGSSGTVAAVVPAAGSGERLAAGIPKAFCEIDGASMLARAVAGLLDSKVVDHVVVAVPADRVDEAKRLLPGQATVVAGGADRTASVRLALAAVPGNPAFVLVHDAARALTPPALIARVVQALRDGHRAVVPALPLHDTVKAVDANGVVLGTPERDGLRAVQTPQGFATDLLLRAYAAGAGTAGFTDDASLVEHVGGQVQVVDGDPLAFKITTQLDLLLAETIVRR
Sequence of IspD of Mycobacterium paratuburculosis (Q743W5 whole entry, the tested form may be a part): as the sequence (Q743W5 whole entry) above

c1ccc2[nH]c(-c3nnco3)cc2c1 [HGN-207, 2-(1H-indol-2-yl)-1,3,4-oxadiazole]
MtIspD melting point change [1]: 1.5 °C | MtIspD melting temp [1]: 49.5 °C | LeIspE melting point change [2]: −1.25 °C | LeIspE melting temp [2]: 48.25 °C | MpIspD thermal shift (positive shift) [3]: 0.8 °C | Bleaching ([4]; 0.5 mM): 2 | Germination ([4]; 0.5 mM): 2 | Root Dev. ([4]; 0.5 mM): 0 | Bleaching ([4]; 1.0 mM): 3 | Germination ([4]; 1.0 mM): 2 | Root Dev. ([4]; 1.0 mM): 0 | IC50 [5]: > 1000 µM | IC50 [6]: > 1000 µM | IC50 [7]: > 1000 µM | BT score [8]: 0 | MS score [9]: 0 | CX score [10]: 0 | CP score [11]: 0 | EC score [12]: 0 | KP score [13]: 0 | ML score [14]: 0 | BC score [15]: 0 | PA score [16]: 0 | STD-NMR binding to MpIspD [17]: bound | STD-NMR binding to MaIspE [18]: bound | melting point: 205 to 207 °C

Clc1ccc(OCc2nnc(-c3nc4ccccc4s3)o2)c(Cl)c1 [HGN-333, 2-(benzo[d]thiazol-2-yl)-5-((2,4-dichlorophenoxy)methyl)-1,3,4-oxadiazole]
MtIspD melting point change [1]: 1.3 °C | MtIspD melting temp [1]: 49.3 °C | LeIspE melting point change [2]: −1.75 °C | LeIspE melting temp [2]: 47.75 °C | IC50 [19]: 3 µM | IC50 [20]: 28 µM | Bleaching ([4]; 0.15 mM): 0 | Germination ([4]; 0.15 mM): 0 | Root Dev. ([4]; 0.15 mM): 0 | Bleaching ([4]; 0.3 mM): 0 | Germination ([4]; 0.3 mM): 0 | Root Dev. ([4]; 0.3 mM): 0 | IC50 [5]: 151 µM | IC50 [6]: 31 µM | IC50 [7]: 291 µM | BT score [8]: 0 | MS score [9]: 0 | CX score [10]: 0 | CP score [11]: 0 | EC score [12]: 0 | KP score [13]: 0 | ML score [14]: 0 | BC score [15]: 0 | effectiveness against Pseudomonas aeruginosa [16]: moderately effective | PA score [16]: 2 | Antibacterial Bt zone of inhibition ([21]; 0.1 mM): 0 millimeters | Antibacterial Bt zone of inhibition ([21]; 0.5 mM): 15 millimeters | Antibacterial Bt zone of inhibition ([21]; 1 mM): 19 millimeters | Antibacterial Pa zone of inhibition ([22]; 0.1 mM): 0 millimeters | Antibacterial Pa zone of inhibition ([22]; 0.5 mM): 18 millimeters | Antibacterial Pa zone of inhibition ([22]; 1 mM): 25 millimeters | Antibacterial Ml zone of inhibition ([23]; 0.1 mM): 0 millimeters | Antibacterial Ml zone of inhibition ([23]; 0.5 mM): 0 millimeters | Antibacterial Ml zone of inhibition ([23]; 1 mM): 0 millimeters | Antibacterial Kp zone of inhibition ([24]; 0.1 mM): 0 millimeters | Antibacterial Kp zone of inhibition ([24]; 0.5 mM): 0 millimeters | Antibacterial Kp zone of inhibition ([24]; 1 mM): 0 millimeters | Antibacterial Ec zone of inhibition ([25]; 0.1 mM): 0 millimeters | Antibacterial Ec zone of inhibition ([25]; 0.5 mM): 0 millimeters | Antibacterial Ec zone of inhibition ([25]; 1 mM): 0 millimeters | Antibacterial Bc zone of inhibition ([26]; 0.1 mM): 0 millimeters | Antibacterial Bc zone of inhibition ([26]; 0.5 mM): 0 millimeters | Antibacterial Bc zone of inhibition ([26]; 1 mM): 12.5 millimeters | Antibacterial Ms zone of inhibition ([27]; 0.1 mM): 0 millimeters | Antibacterial Ms zone of inhibition ([27]; 0.5 mM): 0 millimeters | Antibacterial Ms zone of inhibition ([27]; 1 mM): 0 millimeters | Antibacterial Cx zone of inhibition ([28]; 0.1 mM): 0 millimeters | Antibacterial Cx zone of inhibition ([28]; 0.5 mM): 0 millimeters | Antibacterial Cx zone of inhibition ([28]; 1 mM): 0 millimeters | Antibacterial Cp zone of inhibition ([29]; 0.1 mM): 0 millimeters | Antibacterial Cp zone of inhibition ([29]; 0.5 mM): 0 millimeters | Antibacterial Cp zone of inhibition ([29]; 1 mM): 0 millimeters | melting point: 163 to 165 °C | KD app (ITC, words) [30]: in the nanomolar range | binding stoichiometry (ITC) [30]: 0.903 | ΔH° (ITC) [30]: -8.6 kcal/mol | −TΔS (ITC) [30]: -17.8 kcal/mol | entropic contribution −TΔS (ITC) ([30]; b178, unit not given): −17.8
